Reference: ChEMBL document CHEMBL4266003, “New Dopamine D3-Selective Receptor Ligands Containing a 6-Methoxy-1,2,3,4-tetrahydroisoquinolin-7-ol Motif” (ACS Med Chem Lett, 2018)
pEC50, pKi: −log10 of the molar value. The source made the active and inactive calls. No cut-off for these calls is given here.

What was measured:
D(3) dopamine receptor [1] = molecular target: T1, D(3) dopamine receptor (Homo sapiens, UniProt P35462); assay: Displacement of [3H]N-Methylspiperone from human dopamine D3 receptor expressed in HEKT cell membranes
T1 sequence (P35462 whole entry): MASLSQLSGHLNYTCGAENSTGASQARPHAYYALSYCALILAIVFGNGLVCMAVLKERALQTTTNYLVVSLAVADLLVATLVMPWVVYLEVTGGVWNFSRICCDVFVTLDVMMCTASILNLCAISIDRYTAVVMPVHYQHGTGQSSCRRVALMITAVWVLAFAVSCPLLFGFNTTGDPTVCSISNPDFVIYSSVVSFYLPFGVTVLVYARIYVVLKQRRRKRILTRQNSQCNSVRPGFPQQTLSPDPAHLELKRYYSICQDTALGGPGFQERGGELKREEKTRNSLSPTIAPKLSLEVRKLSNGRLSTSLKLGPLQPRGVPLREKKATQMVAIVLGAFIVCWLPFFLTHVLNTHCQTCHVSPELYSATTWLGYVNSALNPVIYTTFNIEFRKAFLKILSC

D(1A) dopamine receptor [2] = molecular target: T2, D(1A) dopamine receptor (Homo sapiens, UniProt P21728); assay: Inhibition of human dopamine D1 receptor expressed in HEKT cell membranes at 10 uM relative to control; assay type: cell-based
T2 sequence (P21728 whole entry): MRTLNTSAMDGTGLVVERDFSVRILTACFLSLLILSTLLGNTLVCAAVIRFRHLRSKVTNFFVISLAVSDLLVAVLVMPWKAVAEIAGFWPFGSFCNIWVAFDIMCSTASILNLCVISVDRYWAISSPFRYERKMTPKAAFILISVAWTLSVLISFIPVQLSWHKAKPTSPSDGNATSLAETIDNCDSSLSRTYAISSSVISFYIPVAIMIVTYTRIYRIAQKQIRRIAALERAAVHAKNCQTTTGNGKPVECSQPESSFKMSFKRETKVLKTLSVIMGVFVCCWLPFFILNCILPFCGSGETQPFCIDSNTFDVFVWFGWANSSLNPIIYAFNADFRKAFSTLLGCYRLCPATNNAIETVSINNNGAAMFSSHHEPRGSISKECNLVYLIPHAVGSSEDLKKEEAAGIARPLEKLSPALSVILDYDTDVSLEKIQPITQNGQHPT

D(2) dopamine receptor [3] = molecular target: T3, D(2) dopamine receptor (Homo sapiens, UniProt P14416); assay: Inhibition of human dopamine D2 receptor expressed in HEKT cell membranes at 10 uM relative to control; assay type: cell-based
T3 sequence (P14416 whole entry): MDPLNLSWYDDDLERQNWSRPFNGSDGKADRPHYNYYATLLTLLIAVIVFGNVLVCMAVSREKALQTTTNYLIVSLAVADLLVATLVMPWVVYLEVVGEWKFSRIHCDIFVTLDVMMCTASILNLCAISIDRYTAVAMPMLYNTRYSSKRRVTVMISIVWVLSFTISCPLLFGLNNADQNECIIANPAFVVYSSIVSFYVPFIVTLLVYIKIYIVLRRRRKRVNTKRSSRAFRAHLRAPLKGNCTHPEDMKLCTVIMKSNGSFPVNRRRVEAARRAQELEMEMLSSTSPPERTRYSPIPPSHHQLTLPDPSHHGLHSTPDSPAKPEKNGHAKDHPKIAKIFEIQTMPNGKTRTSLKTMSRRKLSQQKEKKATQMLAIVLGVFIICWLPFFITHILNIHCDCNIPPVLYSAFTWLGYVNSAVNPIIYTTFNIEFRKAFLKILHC

[4] = molecular target: T4, D(4) dopamine receptor (Homo sapiens) (UniProt P21917); assay: Inhibition of human dopamine D4 receptor expressed in HEKT cell membranes at 10 uM relative to control; assay type: cell-based
T4 sequence (whole entry): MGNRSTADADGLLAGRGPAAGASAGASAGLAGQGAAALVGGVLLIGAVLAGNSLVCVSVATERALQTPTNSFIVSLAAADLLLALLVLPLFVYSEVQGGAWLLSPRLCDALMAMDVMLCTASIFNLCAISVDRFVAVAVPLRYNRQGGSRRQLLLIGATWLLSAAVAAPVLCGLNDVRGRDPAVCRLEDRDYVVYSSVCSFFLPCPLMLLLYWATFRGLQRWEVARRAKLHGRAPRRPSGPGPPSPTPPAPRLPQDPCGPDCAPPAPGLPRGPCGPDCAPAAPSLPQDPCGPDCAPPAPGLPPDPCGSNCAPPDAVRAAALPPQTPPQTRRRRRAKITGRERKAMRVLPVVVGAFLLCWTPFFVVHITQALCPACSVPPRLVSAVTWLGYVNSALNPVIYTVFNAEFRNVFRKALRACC

D(3) dopamine receptor [5] = molecular target: T1, D(3) dopamine receptor; assay: Agonist activity at human dopamine D3 receptor assessed as beta-arrestin recruitment by Tango assay; assay type: functional
D(3) dopamine receptor [6] = molecular target: T1, D(3) dopamine receptor; assay: Antagonist activity at human dopamine D3 receptor assessed as inhibition of beta-arrestin recruitment by Tango assay; assay type: functional
D(1A) dopamine receptor [7] = molecular target: T2, D(1A) dopamine receptor; assay: Displacement of [3H]SCH23390 from human dopamine D1 receptor expressed in HEKT cell membranes
D(4) dopamine receptor = molecular target: T5, D(4) dopamine receptor (Homo sapiens, UniProt P21917); assay: Displacement of [3H]N-Methylspiperone from human dopamine D4 receptor expressed in HEK cell membranes
T5 sequence (P21917 whole entry): T4 sequence (whole entry)

Homo sapiens [8] = species on record: Homo sapiens; assay: Selectivity ratio of Ki for human dopamine D1 receptor expressed in HEKT cell membranes to Ki for human dopamine D3 receptor expressed in HEKT cell membranes; assay type: cell-based
D(2) dopamine receptor [9] = molecular target: T3, D(2) dopamine receptor; assay: Displacement of [3H]N-Methylspiperone from human dopamine D2 receptor expressed in fibroblasts
Homo sapiens [10] = species on record: Homo sapiens; assay: Selectivity ratio of Ki for human dopamine D2 receptor expressed in fibroblasts to Ki for human dopamine D3 receptor expressed in HEKT cell membranes; assay type: cell-based

Row | SMILES | pKi (D(3) dopamine receptor [1]) | inhibition (D(1A) dopamine receptor [2]) [%] | inhibition (D(2) dopamine receptor [3]) [%] | inhibition [4] [%] | Activity (D(3) dopamine receptor [5]) | pEC50 (D(3) dopamine receptor [6]) | pKi (D(1A) dopamine receptor [7]) | pKi (D(4) dopamine receptor) | Ratio Ki (Homo sapiens [8]) | pKi (D(2) dopamine receptor [9]) | Ratio Ki (Homo sapiens [10])
1 | COc1cc2c(cc1O)CN(CCCCNC(=O)c1ccc(C#N)cc1)CC2 | 8.20 | < 50 | < 50 | < 50 | inactive | 5.85 |  |  |  |  | 
2 | COc1cc2c(cc1O)CN(CCCCNC(=O)c1ccc(I)cc1)CC2 | 8.00 |  | < 50 |  |  |  | 5.80 | 5.82 | 160 |  | 
3 | COc1cc2c(cc1O)CN(CCCCNC(=O)c1ccc(O)cc1)CC2 | 8.06 | < 50 | < 50 |  | inactive | 6.38 |  | 6.18 |  |  | 
4 | COc1ccc(C(=O)NCCCCN2CCc3cc(OC)c(O)cc3C2)cc1 | 8.23 | < 50 | < 50 |  | inactive | 6.44 |  | 6.25 |  |  | 
5 | COc1cc2c(cc1O)CN(CCCCNC(=O)c1ccncc1)CC2 | 7.62 | < 50 | < 50 |  |  |  |  | 5.85 |  |  | 
6 | COc1cc2c(cc1O)CN(CCCCNC(=O)c1ccc(Br)cc1)CC2 | 8.47 |  |  |  |  |  | 6.30 | 6.46 | 147 | < 5.00 | > 2940
7 | COc1cc2c(cc1O)CN(CCCCNC(=O)c1ccc(Cl)cc1)CC2 | 8.68 |  |  |  |  |  | 6.17 | 6.85 | 323 | 5.96 | 524
8 | COc1cc2c(cc1O)CN(CCCCNC(=O)c1ccc(-c3ccccc3)cc1)CC2 | 8.57 |  |  |  |  |  | 6.10 | 6.14 | 296 | 6.10 | 296
9 | COc1cc2c(cc1OC)CN(CCCCNC(=O)c1ccc(C#N)cc1)CC2 | 6.39 | < 50 | < 50 | < 50 |  |  |  |  |  |  | 
10 | COc1cc2c(cc1O)CN(CCCCNC(=O)c1ccc(C(N)=O)cc1)CC2 | 7.55 | < 50 |  | < 50 |  |  |  |  |  | 6.07 | 31
11 | COc1cc2c(cc1O)CN(CCCCNC(=O)c1ccc(F)cc1)CC2 | 8.36 | < 50 | < 50 |  | inactive | 6.31 |  | 7.02 |  |  | 
12 | COc1cccc(C(=O)NCCCCN2CCc3cc(OC)c(O)cc3C2)c1 | 7.92 | < 50 | < 50 |  |  |  |  | 6.82 |  |  | 
13 | COc1cc2c(cc1O)CN(CCCCNC(=O)c1ccnc3ccccc13)CC2 | 7.66 |  | < 50 |  |  |  | 5.74 | 6.39 | 82 |  | 
14 | COc1cc2c(cc1O)CN(CCCCNC(=O)c1ccc3ccccc3c1)CC2 | 8.57 |  |  |  |  |  | 6.10 | 6.77 | 296 | 6.15 | 260
